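48-hour exposure; five concentrations; linearly interpolated endpoints. GI50 is the concentration that inhibits growth by half. TGI is the concentration that stops growth completely.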
Assays:
Assay in all cases: NCI-60 cell line screen, 48 h
[1] = system: SK-MEL-5 melanoma
[2] = system: SF-295 CNS
[3] = system: IGROV1 ovarian
[4] = system: MDA-MB-231 breast
[5] = system: UO-31 renal
[6] = system: SNB-75 CNS
[7] = system: MOLT-4 leukemia
[8] = system: HOP-92 NSCLC
[9] = system: SN12C renal
[10] = system: EKVX NSCLC
[11] = system: BT-549 breast
[12] = system: HCC-2998 colon
[13] = system: M14 melanoma
[14] = system: A498 renal
[15] = system: DU-145 prostate
[16] = system: TK-10 renal
[17] = system: COLO 205 colon
[18] = system: RXF 393 renal
[19] = system: NCI-H522 lung
[20] = system: SF-539 CNS
[21] = system: U251 CNS
[22] = system: SNB-19 CNS
[23] = system: NCI-H226 lung
[24] = system: HCT-15 colon
[25] = system: SF-268 CNS
[26] = system: UACC-257 melanoma
[27] = system: HCT-116 colon
[28] = system: NCI-H460 lung
[29] = system: OVCAR-3 ovarian
[30] = system: MDA-MB-435
[31] = system: KM12 colon
[32] = system: HL-60(TB) leukemia
[33] = system: MCF7 breast
[34] = system: UACC-62 melanoma
[35] = system: CCRF-CEM leukemia
[36] = system: HT29 colon
[37] = system: OVCAR-4 ovarian
[38] = system: MALME-3M melanoma
[39] = system: SW-620 colon
[40] = system: PC-3 prostate
[41] = system: ACHN renal
[42] = system: SK-MEL-28 melanoma
[43] = system: HS 578T breast
[44] = system: 786-0 renal
[45] = system: HOP-62 NSCLC
[46] = system: LOX IMVI melanoma
[47] = system: SR leukemia
[48] = system: K-562 leukemia
[49] = system: CAKI-1 renal
[50] = system: SK-MEL-2 melanoma
[51] = system: SK-OV-3 ovarian
[52] = system: RPMI-8226 leukemia
[53] = system: OVCAR-8 ovarian
[54] = system: T-47D breast
[55] = system: A549 NSCLC
[56] = system: OVCAR-5 ovarian
[57] = system: NCI/ADR-RES ovarian

In the case of COc1cc2cc(Oc3ccc(NC(=O)c4cccc(C(F)(F)F)c4)cc3)c(C)nc2cc1OCCN1CCCCC1, the GI50 [1] is reported as 17.1 µM, the TGI [1] is reported as 30.9 µM and the GI50 [2] is reported as 18.3 µM. The TGI [2] was 34 µM, the GI50 [3] was 38.4 µM and the TGI [3] was greater than 100 µM. It also gave a GI50 [4] of 18.4 µM, a TGI [4] of 36.9 µM and a GI50 [5] of 15.4 µM. The TGI [5] was 30 µM, the GI50 [6] was 15 µM and the TGI [6] was 29.9 µM. For the same molecule, the GI50 [7] was 20.9 µM, the TGI [7] was 58.5 µM and the GI50 [8] was 21.7 µM. The TGI [8] was greater than 100 µM, the GI50 [9] was 17.6 µM and the TGI [9] was 34.4 µM. For the same molecule, the GI50 [10] was 31.6 µM, the TGI [10] was greater than 100 µM and the GI50 [11] was greater than 100 µM. It also gave a TGI [11] greater than 100 µM, a GI50 [12] of 18.2 µM and a TGI [12] of 34.6 µM. It also gave a GI50 [13] of 17.9 µM, a TGI [13] of 35.1 µM and a GI50 [14] greater than 100 µM. It also gave a TGI [14] greater than 100 µM, a GI50 [15] of 41.6 µM and a TGI [15] greater than 100 µM. For the same molecule, the GI50 [16] was greater than 100 µM, the TGI [16] was greater than 100 µM and the GI50 [17] was 16.4 µM. It also gave a TGI [17] of 31 µM, a GI50 [18] of 13.2 µM and a TGI [18] of 26.6 µM. For the same molecule, the GI50 [19] was 16 µM, the TGI [19] was 31.3 µM and the GI50 [20] was 16.9 µM. It also gave a TGI [20] of 30.9 µM, a GI50 [21] of 17.8 µM and a TGI [21] of 34 µM. The GI50 [22] was 34.8 µM, the TGI [22] was greater than 100 µM and the GI50 [23] was greater than 100 µM. For the same molecule, the TGI [23] was greater than 100 µM, the GI50 [24] was 16 µM and the TGI [24] was 30.9 µM. For the same molecule, the GI50 [25] was 20.4 µM, the TGI [25] was 43.4 µM and the GI50 [26] was 17.2 µM. The TGI [26] was 32.2 µM, the GI50 [27] was 20.6 µM and the TGI [27] was 48.9 µM. It also gave a GI50 [28] of 19 µM, a TGI [28] of 37.3 µM and a GI50 [29] of 22.3 µM. It also gave a TGI [29] of 47.6 µM, a GI50 [30] of 16.7 µM and a TGI [30] of 31.4 µM. The GI50 [31] was 30.3 µM, the TGI [31] was greater than 100 µM and the GI50 [32] was 19.6 µM. The TGI [32] was 42.4 µM, the GI50 [33] was 14.4 µM and the TGI [33] was 29.7 µM. It also gave a GI50 [34] of 18.8 µM, a TGI [34] of 36.1 µM and a GI50 [35] of 29.8 µM. For the same molecule, the TGI [35] was greater than 100 µM, the GI50 [36] was 18 µM and the TGI [36] was 37.1 µM. The GI50 [37] was 19.4 µM, the TGI [37] was 45.7 µM and the GI50 [38] was 18.3 µM. For the same molecule, the TGI [38] was 34 µM, the GI50 [39] was 21.3 µM and the TGI [39] was 42.8 µM. For the same molecule, the GI50 [40] was 19 µM, the TGI [40] was 42 µM and the GI50 [41] was 21.5 µM. The TGI [41] was 49.2 µM, the GI50 [42] was 17.1 µM and the TGI [42] was 31.4 µM. For the same molecule, the GI50 [43] was 19.4 µM, the TGI [43] was 53 µM and the GI50 [44] was 16.5 µM. For the same molecule, the TGI [44] was 32.8 µM, the GI50 [45] was 33.6 µM and the TGI [45] was greater than 100 µM. For the same molecule, the GI50 [46] was 17.8 µM, the TGI [46] was 32.5 µM and the GI50 [47] was 18.2 µM. It also gave a TGI [47] of 46.1 µM, a GI50 [48] of 19.3 µM and a TGI [48] of 47 µM. For the same molecule, the GI50 [49] was 16 µM, the TGI [49] was 32.2 µM and the GI50 [50] was greater than 100 µM. For the same molecule, the TGI [50] was greater than 100 µM, the GI50 [51] was greater than 100 µM and the TGI [51] was greater than 100 µM. For the same molecule, the GI50 [52] was 20.6 µM, the TGI [52] was 52.4 µM and the GI50 [53] was 18.2 µM. The TGI [53] was 36.7 µM, the GI50 [54] was 18.1 µM and the TGI [54] was 46.1 µM. For the same molecule, the GI50 [55] was 27.5 µM, the TGI [55] was greater than 100 µM and the GI50 [56] was 41.4 µM. For the same molecule, the TGI [56] was greater than 100 µM, the GI50 [57] was 33.9 µM and the TGI [57] was greater than 100 µM.

From PubChem BioAssay (NCI)
